“And” between values parts separate entries of the source, which are not always exact repeats. Equal entries are not always repeated. Where two headings read alike, the source gives them in different places. Peptide text beside a SMILES is read from it.
Tests used:
[1] = system: E. coli BW25113; type: cell-based, Escherichia coli; conditions: for MSCrif: rifampicin concentration in the combination giving the lowest FICi; for MSCrif / MSCpep: E. coli BW25113; for MICpep: synergist alone, E. coli BW25113, from checkerboard with rifampicin; for MSCpep: synergist concentration in the combination with rifampicin giving the lowest FICi
Protocol: (§1) All peptides were screened for antimicrobial activity against E. coli BW25113, E. coli ATCC25922, and E. coli W3110. A select group of the peptides was further tested against E. coli mcr-1, E. coli EQASmcr-1 (EQAS 2016 412016126), E. coli EQASmcr-2 (EQAS 2016 KP37), E. coli EQASmcr-3 (EQAS 2017 2013-SQ352), K. pneumoniae ATCC13883, P. aeruginosa ATCC27853, and A. baumannii ATCC17978. The antimicrobial assay was performed according to CLSI guidelines. Bacteria were plated out directly from their glycerol stocks on blood agar plates, incubated overnight at 37 °C, and then kept in the fridge. The blood agar plates were only used for 2 weeks and then replaced.
(§2) One colony from a blood agar plates was inoculated in Lysogeny Broth (LB) at 37 °C until a 0.5 optical density at 600 nm (OD600) was reached (compared to the sterility control of LB). The bacterial suspension was diluted in fresh LB to 2.0 × 10^6 CFU/mL. The serial dilutions were prepared in polypropylene microtiter plates: a stock of the test compounds was prepared with a 2x final concentration in LB. Moreover, 100 µL of the stock was added to the wells of the top row of which 50 µL was used for the serial dilution. The bottom row of each plate was used as the positive (50 µL of LB) and negative controls (100 µL of LB) (6 wells each). Furthermore, 50 µL of the 2.0 × 10^6 CFU/mL bacterial stock was added to each well except for the negative controls, adding up to a total volume of 100 µL per well. The plates were sealed with a breathable seal and incubated for 20 h at 37 °C and 600 rpm.
(§3) Two 96-well plates were required per compound. A serial dilution of the compound was performed on two plates from row A–G using with LB as medium. Row H was filled with 25 µL medium. On a separate plate a negative control (8 wells, 100 μL medium) was prepared. For all concentrations of antibiotic a specific stock was prepared. 25 µL medium was added to the 0 µg/mL antibiotic columns (plate I, column 1–3). Of each antibiotic stock 25 µL was added to three columns to obtain triplicates for every condition. Both plates contained 50 µL in each well to which 50 µL bacterial stock was added (see the protocol of the MIC assays) and the plates were sealed. After incubation for 20 h at 37 °C while shaking, the breathable seals were removed and the density of the bacterial suspensions measured at 600 nm (OD600) using a Tecan Spark plate reader. The OD600 values were transformed to a 2D gradient with the negative control as minimum and the positive control (wells G1, G2, and G3) as maximum in excel. The FICi was calculated using Equation (1) with a FICi ≤ 0.5 indicating synergy. FICi = (MSCa/MICa) + (MSCb/MICb),(1)
(§4) Calculation of the FICi: MSCa = concentration of the […] in combination with the antibiotic that results in the lowest FICi. MICa = MIC of the antibiotic without synergist (row G). MSCb = concentration of the synergist in combination with the antibiotic that results in the lowest FICi. MICb = MIC of the synergist itself (Column 1–3, plate I).

[2] = system: E. coli BW25113; experiment: Checkerboard assay with erythromycin; type: cell-based, Escherichia coli; conditions: for MSCery: erythromycin concentration in the combination with the synergist giving the lowest FICi, E. coli BW25113; for MIC of the peptide (MICpep): synergist alone, from checkerboard with erythromycin; for MIC of the peptide (MICpep) / MSCpeptide, minimum synergistic concentration: 20 h 37 °C; for MSCpeptide, minimum synergistic concentration: synergist concentration in the combination with erythromycin giving the lowest FICi, OD600; for FICi: with erythromycin vs E. coli BW25113, synergy defined as FICi ≤ 0.5
Protocol: as §1, §2, §3, §4

[3] = system: defibrinated sheep blood (red blood cells); experiment: Hemolysis assay; type: cell-based; conditions: 200 µg/mL compound, 20 h incubation at 37 °C with defibrinated sheep blood, PBS 0.002% Tween20, absorbance 415 nm, relative to 0.1% Triton X-100; n=3 technical replicates
Protocol: Defibrinated sheep blood (Thermo Fisher Scientific) and a phosphate-buffered saline (PBS) buffer containing 0.002% Tween20 were used in this assay. The red blood cells were washed with buffer followed by centrifugation (400 g for 15 min at 4 °C). The red blood cells were then normalized to obtain a positive control read-out around 2.5 at 415 nm to stay in the linear range with the maximum sensitivity. A serial dilution of the compounds (200–1.56 µg/mL, 75 µL) was prepared in a 96-well plate. Each plate contained a positive control (0.1% Triton X-100 final concentration, 75 µL) and the negative control (buffer, 75 µL). After addition of normalized blood cells (75 µL), the plates were incubated for 20 h at 37 °C at 500 rpm. The plates were centrifuged (800× g for 5 min at room temperature). For the next step flat-bottom polystyrene plates were prepared with 100 µL buffer in each well. Aliquots of 25 µL supernatant from the centrifuged plates were then transferred to their respective wells in the flat-bottom plate. Absorbance values where measured at 415 nm and corrected for background (negative control) and transformed to a percentage hemolysis relative to the positive control.

[4] = system: E. coli BW25113; experiment: microbe, parasite or virus in culture; type: cell-based, Escherichia coli; conditions: antibiotic without synergist, E. coli BW25113
Protocol: as §1, §2, §3, §4

Row | SMILES | MSCrif [1] | MICpep [1] | MSCpep [1] | MSCery [2] | MIC of the peptide (MICpep) ([2]; E. coli BW25113, LB) | MSCpeptide, minimum synergistic concentration ([2]; E. coli BW25113, LB) | Hemolysis [3] | FICi ([1]; BW25113, 20 h) | FICi [2] | MIC ([4]; Escherichia coli, read-out: MIC of novobiocin (MICnovo)) | MIC of novobiocin (MICnovo) [4] | FICi ([1]; with rifampicin vs E. coli BW25113, synergy defined as FICi ≤ 0.5) | MIC ([2]; Escherichia coli, antibiotic without synergist, E. coli BW25113, LB, read-out: MIC of erythromycin (MICery)) | MIC of erythromycin (MICery) ([2]; antibiotic without synergist, E. coli BW25113, LB)
1 | CC[C@H](C)[C@H](NC(=O)[C@@H](NC(=O)[C@H](CCCCN)NC(=O)[C@H](CCC(N)=O)NC(=O)[C@@H](NC(=O)[C@H](Cc1c[nH]c2ccccc12)NC(=O)[C@H](CCCCN)NC(=O)[C@H](CCCCN)NC(=O)[C@H](CC(C)C)NC(=O)[C@H](CCCNC(=N)N)NC(=O)[C@H](Cc1ccccc1)NC(=O)[C@@H](NC(C)=O)C(C)C)[C@@H](C)CC)C(C)C)C(=O)O [peptide 5] (Ac-VFRLKKWIQKVI-OH) | 0.25 µg/mL | > 200 µg/mL | 50 µg/mL | 6.25 µg/mL | > 200 µg/mL | 50 µg/mL | 0.2% and 0% | – | – | – | – | – | – | –
2 | CC[C@H](C)[C@H](NC(=O)[C@@H](NC(=O)[C@H](CCCCN)NC(=O)[C@H](CCC(N)=O)NC(=O)[C@@H](NC(=O)[C@H](Cc1c[nH]c2ccccc12)NC(=O)[C@H](C)NC(=O)[C@H](CCCCN)NC(=O)[C@H](CC(C)C)NC(=O)[C@H](CCCNC(=N)N)NC(=O)[C@H](Cc1ccccc1)NC(=O)[C@@H](N)C(C)C)[C@@H](C)CC)C(C)C)C(N)=O [compound 13] (H-VFRLKAWIQKVI-NH2) | 2 µg/mL | 25 µg/mL | 6.25 µg/mL | 3.125 µg/mL | 25 µg/mL | 12.5 µg/mL | 19.0% | 0.5000 | > 0.5 | – | – | – | – | –
3 | CO[C@@H]1[C@@H](OC(N)=O)[C@@H](O)[C@H](Oc2ccc3c(O)c(NC(=O)c4ccc(O)c(CC=C(C)C)c4)c(=O)oc3c2C)OC1(C)C [novobiocin, reference compound] | – | – | – | – | – | – | – | – | – | > 200 µg/mL | > 200 µg/mL | – | – | –
4 | CC[C@H](C)[C@H](NC(=O)[C@@H](NC(=O)[C@H](CCCCN)NC(=O)[C@H](CCC(N)=O)NC(=O)[C@@H](NC(=O)[C@H](Cc1c[nH]c2ccccc12)NC(=O)[C@H](CCCCN)NC(=O)[C@H](C)NC(=O)[C@H](CC(C)C)NC(=O)[C@H](CCCNC(=N)N)NC(=O)[C@H](Cc1ccccc1)NC(=O)[C@@H](N)C(C)C)[C@@H](C)CC)C(C)C)C(N)=O [compound 12] (H-VFRLAKWIQKVI-NH2) | – | 25 µg/mL | 12.5 µg/mL | 1.563 µg/mL | 25 µg/mL | 12.5 µg/mL | 30.2% and 30% | – | > 0.5 | – | – | > 0.5 | – | –
5 | CC[C@H]1OC(=O)[C@H](C)[C@@H](O[C@H]2C[C@@](C)(OC)[C@@H](O)[C@H](C)O2)[C@H](C)[C@@H](O[C@@H]2O[C@H](C)C[C@H](N(C)C)[C@H]2O)[C@](C)(O)C[C@@H](C)C(=O)[C@H](C)[C@@H](O)[C@]1(C)O [erythromycin, reference compound] | – | – | – | – | – | – | – | – | – | – | – | – | 100 to 200 µg/mL | > 100 µg/mL and 200 µg/mL
6 | CC[C@H](C)[C@H](NC(=O)[C@@H](NC(=O)[C@H](CCCCN)NC(=O)[C@H](C)NC(=O)[C@@H](NC(=O)[C@H](Cc1c[nH]c2ccccc12)NC(=O)[C@H](CCCCN)NC(=O)[C@H](CCCCN)NC(=O)[C@H](CC(C)C)NC(=O)[C@H](CCCNC(=N)N)NC(=O)[C@H](Cc1ccccc1)NC(=O)[C@@H](N)C(C)C)[C@@H](C)CC)C(C)C)C(N)=O [compound 16] (H-VFRLKKWIAKVI-NH2) | – | 25 µg/mL | 6.25 µg/mL | 12.5 µg/mL | 25 µg/mL | 3.125 µg/mL | 3.5% and 4% | 0.2656 | – | – | – | – | – | –
7 | CC[C@H](C)[C@H](NC(=O)[C@@H](NC(=O)[C@H](CCCCN)NC(=O)[C@H](CCC(N)=O)NC(=O)[C@@H](NC(=O)[C@H](Cc1c[nH]c2ccccc12)NC(=O)[C@H](CCCCN)NC(=O)[C@H](CCCCN)NC(=O)[C@H](CC(C)C)NC(=O)[C@H](CCCNC(=N)N)NC(=O)[C@H](C)NC(=O)[C@@H](N)C(C)C)[C@@H](C)CC)C(C)C)C(N)=O [peptide 9] (H-VARLKKWIQKVI-NH2) | – | 200 µg/mL | 25 µg/mL | 12.5 µg/mL | 50 µg/mL | 3.125 µg/mL | 0.1% and 0% | 0.1406 | 0.1250 | – | – | – | – | –
8 | CC[C@H](C)[C@H](NC(=O)[C@H](Cc1c[nH]c2ccccc12)NC(=O)[C@H](CCCCN)NC(=O)[C@H](CCCCN)NC(=O)[C@H](CC(C)C)NC(=O)[C@H](CCCNC(=N)N)NC(=O)[C@H](Cc1ccccc1)NC(=O)[C@@H](NC(=O)[C@@H](N)Cc1c[nH]cn1)C(C)C)C(=O)N[C@@H](CCC(N)=O)C(=O)N[C@@H](CCCCN)C(=O)N[C@H](C(=O)N[C@H](C(=O)N[C@@H](CC(=O)O)C(=O)N[C@@H](CCC(N)=O)C(=O)N[C@@H](Cc1ccccc1)C(=O)NCC(=O)N[C@@H](CCC(=O)O)C(=O)O)[C@@H](C)CC)C(C)C [peptide 2] (H-HVFRLKKWIQKVIDQFGE-OH) | 0.5 µg/mL | 200 µg/mL | 50 µg/mL | 25 µg/mL | 200 µg/mL | 50 µg/mL | – | – | 0.3750 | – | – | – | – | –
9 | CC[C@H](C)[C@H](NC(=O)[C@H](Cc1c[nH]c2ccccc12)NC(=O)[C@H](CCCCN)NC(=O)[C@H](CCCCN)NC(=O)[C@H](CC(C)C)NC(=O)[C@H](CCCNC(=N)N)NC(=O)[C@H](Cc1ccccc1)NC(=O)[C@@H](NC(=O)[C@@H](N)Cc1cnc[nH]1)C(C)C)C(=O)N[C@@H](CCC(N)=O)C(=O)N[C@@H](CCCCN)C(=O)N[C@H](C(=O)N[C@H](C(=O)N[C@@H](CC(=O)O)C(=O)N[C@@H](CCC(N)=O)C(=O)N[C@@H](Cc1ccccc1)C(=O)NCC(=O)N[C@@H](CCC(=O)O)C(=O)O)[C@@H](C)CC)C(C)C [peptide 2] (H-HVFRLKKWIQKVIDQFGE-OH) | – | – | – | – | – | – | 8.7% and 9% | – | – | – | – | – | – | –
